Assay results reported in patent US20190194179A1, “ANTIBIOTIC COMPOUNDS” (DISCUVA LTD., priority 2016, published 2019).
Where a name gives a salt, the structure may show the parent alone.

System: Neisseria gonorrhoeae
Assay: EC50 determination: plate-based broth growth assay (absorbance at 600 nm) of Neisseria gonorrhoeae
Type: cell-based
Conditions: absorbance 600 nm after 20 hours at 37° C./5% CO2, read-out: IC50 (Inhibitory concentration) against Neisseria gonorrhoeae
Description: Actively growing Neisseria gonorrhoeae on GC agar (based on; Spence et. al. (2008): Curr. Protoc. Microbiol. 8:4A.1.1-4A.1.26) plates are harvested and transferred to GC broth (based on; Spence et al (2008): Curr. Protoc. Microbiol. 8:4A.1.1-4A.1.26) to generate a liquid stock. This culture is allowed to establish and grow to mid-log phase (at 37° C./5% CO2), finally this culture is diluted (˜10^5 cells/ml) to generate a seed inoculum to establish plate-based broth assays. EC50 values were determined by assaying growth (absorbance read at 600 nm, after 20 hours at 37° C./5% CO2) of Neisseria gonorrhoeae across a 10-point dilution series of the test compound. The EC50 value is determined from transformed data to identify the concentration of compound giving a 50% response relative to control samples (no compound).

IC50 [nM] | Compound
≤ 1000 | CCOC(=O)c1nnc(Nc2nc3cc(C(F)(F)F)ccc3n2C)o1 [Example 55, Ethyl 5-((1-methyl-5-(trifluoromethyl)-1H-benzo[d]imidazol-2-yl)amino)-1,3,4-oxadiazole-2-carboxylate]
≤ 1000 | CCOC(=O)c1nnc(Nc2nc3cc(C(F)(F)F)ccc3[nH]2)o1 [Example 56, Ethyl 5-((5-(trifluoromethyl)-1H-benzo[d]imidazol-2-yl)amino)-1,3,4-oxadiazole-2-carboxylate]
≤ 1000 | Clc1cccc2nc(Nc3nnco3)oc12 [Example 57, 7-Chloro-N-(1,3,4-oxadiazol-2-yl)benzo[d]oxazol-2-amine]
≤ 10000 | Cc1nnc(Nc2nc3cnccc3o2)o1 [Example 58, N-(5-Methyl-1,3,4-oxadiazol-2-yl)oxazolo[4,5-c]pyridin-2-amine]
≤ 1000 | FC(F)(F)c1ccc2oc(Nc3nc4ccncc4o3)nc2c1 [Example 59, N-(5-(triFluoromethyl)benzo[d]oxazol-2-yl)oxazolo[5,4-c]pyridin-2-amine]
≤ 100 | CCOC(=O)c1nnc(Nc2nc3ccc(Cl)cc3o2)o1 [Example 61, Ethyl 5-((6-chlorobenzo[d]oxazol-2-yl)amino)-1,3,4-oxadiazole-2-carboxylate]
≤ 1000 | Cc1nnc(Nc2nc3c(F)cccc3o2)o1 [Example 62, 4-Fluoro-N-(5-methyl-1,3,4-oxadiazol-2-yl)benzo[d]oxazol-2-amine]
≤ 1000 | Fc1ccc2nc(Nc3nnco3)oc2c1 [Example 63, 6-Fluoro-N-(1,3,4-oxadiazol-2-yl)benzo[d]oxazol-2-amine]
≤ 10000 | Cc1nnc(Nc2nc3cncc(Cl)c3o2)o1 [Example 64, 7-Chloro-N-(5-methyl-1,3,4-oxadiazol-2-yl)oxazolo[4,5-c]pyridin-2-amine]
≤ 100 | CCOC(=O)c1nnc(Nc2nc3cc(C(F)(F)F)c(Cl)cc3o2)o1 [Example 65, Ethyl 5-((6-chloro-5-(trifluoromethyl)benzo[d]oxazol-2-yl)amino)-1,3,4-oxadiazole-2-carboxylate]
≤ 1000 | Fc1ccc2oc(Nc3nnco3)nc2c1 [Example 66, 5-Fluoro-N-(1,3,4-oxadiazol-2-yl)benzo[d]oxazol-2-amine]
≤ 1000 | FC(F)(F)c1ccc2[nH]c(Nc3nnco3)nc2c1 [Example 68, N-(5-(Trifluoromethyl)-1H-benzo[d]imidazol-2-yl)-1,3,4-oxadiazol-2-amine]
≤ 1000 | Cn1c(Nc2nnco2)nc2cc(C(F)(F)F)ccc21 [Example 69, N-(1-methyl-5-(trifluoromethyl)-1H-benzo[d]imidazol-2-yl)-1,3,4-oxadiazol-2-amine]
≤ 1000 | FC(F)(F)c1ccc2oc(Nc3nnc(CN4CCOCC4)o3)nc2c1 [Example 70, N-(5-(morpholinomethyl)-1,3,4-oxadiazol-2-yl)-5-(trifluoromethyl)benzo[d]oxazol-2-amine]
≤ 1000 | FC(F)(F)c1ccc2oc(Nc3nnc(CN4CCCC4)o3)nc2c1 [Example 71, N-(5-(Pyrrolidin-1-ylmethyl)-1,3,4-oxadiazol-2-yl)-5-(trifluoromethyl)benzo[d]oxazol-2-amine]
≤ 1000 | FC(F)(F)c1ccc2oc(Nc3nnc(CN4CCCCC4)o3)nc2c1 [Example 72, N-(5-(Piperidin-1-ylmethyl)-1,3,4-oxadiazol-2-yl)-5-(trifluoromethyl)benzo[d]oxazol-2-amine]
≤ 1000 | CC1CCCN1Cc1nnc(Nc2nc3cc(C(F)(F)F)ccc3o2)o1 (stereo not drawn) [Example 73, N-(5-((2-Methylpyrrolidin-1-yl)methyl)-1,3,4-oxadiazol-2-yl)-5-(trifluoromethyl)benzo[d]oxazol-2-amine]
≤ 1000 | FC1(F)CCN(Cc2nnc(Nc3nc4cc(C(F)(F)F)ccc4o3)o2)C1 [Example 74, N-(5-((3,3-diFluoropyrrolidin-1-yl)methyl)-1,3,4-oxadiazol-2-yl)-5-(trifluoromethyl)benzo[d]oxazol-2-amine]
≤ 1000 | COC1CCN(Cc2nnc(Nc3nc4cc(C(F)(F)F)ccc4o3)o2)C1 (stereo not drawn) [Example 75, N-(5-((3-Methoxypyrrolidin-1-yl)methyl)-1,3,4-oxadiazol-2-yl)-5-(trifluoromethyl)benzo[d]oxazol-2-amine]
≤ 10000 | N#CC1CCN(Cc2nnc(Nc3nc4cc(C(F)(F)F)ccc4o3)o2)C1 (stereo not drawn) [Example 76, 1-((5-((5-(triFluoromethyl)benzo[d]oxazol-2-yl)amino)-1,3,4-oxadiazol-2-yl)methyl)pyrrolidine-3-carbonitrile]

IC50 [nM] | Compound
≤ 100 | Clc1ccc2nc(Nc3nnc(CN4CCCC4)o3)oc2c1 [Example 77, 6-Chloro-N-(5-(pyrrolidin-1-ylmethyl)-1,3,4-oxadiazol-2-yl)benzo[d]oxazol-2-amine]
≤ 1000 | CC1CCN(Cc2nnc(Nc3nc4cc(C(F)(F)F)ccc4o3)o2)C1 (stereo not drawn) [Example 78, N-(5-((3-methylpyrrolidin-1-yl)methyl)-1,3,4-oxadiazol-2-yl)-5-(trifluoromethyl)benzo[d]oxazol-2-amine]
≤ 1000 | FC1CCN(Cc2nnc(Nc3nc4cc(C(F)(F)F)ccc4o3)o2)C1 (stereo not drawn) [Example 79, N-(5-((3-Fluoropyrrolidin-1-yl)methyl)-1,3,4-oxadiazol-2-yl)-5-(trifluoromethyl)benzo[d]oxazol-2-amine]
≤ 1000 | CN(C)Cc1nnc(Nc2nc3ccc(Cl)cc3o2)o1 [Example 81, 6-Chloro-N-(5-((dimethylamino)methyl)-1,3,4-oxadiazol-2-yl)benzo[d]oxazol-2-amine]
≤ 1000 | CN(C)Cc1nnc(Nc2nc3cc(C(F)(F)F)ccc3o2)o1 [Example 82, N-(5-((Dimethylamino)methyl)-1,3,4-oxadiazol-2-yl)-5-(trifluoromethyl)benzo[d]oxazol-2-amine]
≤ 1000 | Cc1nnc(Nc2nc3ccc(C(F)(F)F)cc3[nH]2)o1 [Example 83, 5-Methyl-N-(6-(trifluoromethyl)-1H-benzo[d]imidazol-2-yl)-1,3,4-oxadiazol-2-amine]
≤ 10000 | COC(=O)c1ccc2[nH]c(Nc3nnc(C)o3)nc2c1 [Example 84, Methyl 2-((5-methyl-1,3,4-oxadiazol-2-yl)amino)-1H-benzo[d]imidazole-5-carboxylate]
≤ 1000 | Cc1nnc(Nc2nc3cc(Cl)ccc3[nH]2)o1 [Example 85, N-(5-Chloro-1H-benzo[d]imidazol-2-yl)-5-methyl-1,3,4-oxadiazol-2-amine]
≤ 1000 | Cc1nnc(Nc2nc3cc(C(F)(F)F)ccc3[nH]2)s1 [Example 86, 5-Methyl-N-(5-(trifluoromethyl)-1H-benzo[d]imidazol-2-yl)-1,3,4-thiadiazol-2-amine]
≤ 1000 | Cc1nnc(Nc2nc3c(F)cccc3[nH]2)o1 [Example 87, N-(4-Fluoro-1H-benzo[d]imidazol-2-yl)-5-methyl-1,3,4-oxadiazol-2-amine]
≤ 1000 | Cc1nnc(Nc2nc3cc(C(F)(F)F)ccc3n2C)o1 [Example 88, 5-Methyl-N-(1-methyl-5-(trifluoromethyl)-1H-benzo[d]imidazol-2-yl)-1,3,4-oxadiazol-2-amine]
≤ 1000 | Cc1nnc(Nc2nc3ccc(C(F)(F)F)cc3n2C)o1 [Example 89, 5-Methyl-N-(1-methyl-6-(trifluoromethyl)-1H-benzo[d]imidazol-2-yl)-1,3,4-oxadiazol-2-amine]
≤ 10000 | Cc1nnc(Nc2nc3c(C)cccc3n2C)o1 [Example 90, N-(1,4-Dimethyl-1H-benzo[d]imidazol-2-yl)-5-methyl-1,3,4-oxadiazol-2-amine]
≤ 100000 | Cn1c(Nc2nnco2)nc2ccc(Cl)cc21 [Example 92, N-(6-Chloro-1-methyl-1H-benzo[d]imidazol-2-yl)-1,3,4-oxadiazol-2-amine]
≤ 10000 | CNCc1nnc(Nc2nc3cc(C(F)(F)F)ccc3o2)o1 [Example 93, N-(5-((Methylamino)methyl)-1,3,4-oxadiazol-2-yl)-5-(trifluoromethyl)benzo[d]oxazol-2-amine]
≤ 10000 | CC(=O)N(C)Cc1nnc(Nc2nc3cc(C(F)(F)F)ccc3o2)o1 [Example 94, N-Methyl-N-((5-((5-(trifluoromethyl)benzo[d]oxazol-2-yl)amino)-1,3,4-oxadiazol-2-yl)methyl)acetamide]
≤ 10000 | O=C(O)c1csc(Nc2nc3cc(Cl)ccc3o2)n1 [Example 96, 2-((5-Chlorobenzo[d]oxazol-2-yl)amino)thiazole-4-carboxylic acid]
≤ 1000 | CN(C)CCNC(=O)c1csc(Nc2nc3cc(Cl)ccc3o2)n1 [Example 97, 2-((5-Chlorobenzo[d]oxazol-2-yl)amino)-N-(2-(dimethylamino)ethyl)thiazole-4-carboxamide]
≤ 100 | O=C(Nc1ccnc(F)c1)c1csc(Nc2nc3cc(C(F)(F)F)ccc3o2)n1 [Example 98, N-(2-fluoropyridin-4-yl)-2-((5-(trifluoromethyl)benzo[d]oxazol-2-yl)amino)thiazole-4-carboxamide]
≤ 1000 | NC(=O)c1csc(Nc2nc3cc(Cl)ccc3o2)n1 [Example 99, 2-((5-Chlorobenzo[d]oxazol-2-yl)amino)thiazole-4-carboxamide]

Compound | IC50 [nM]
Clc1ccc2nc(Nc3nnco3)[nH]c2c1 [Example 91, N-(6-Chloro-1H-benzo[d]imidazol-2-yl)-1,3,4-oxadiazol-2-amine] | ≤ 100000
O=C(c1csc(Nc2nc3cc(C(F)(F)F)ccc3o2)n1)N1CCNCC1 [Example 95, Piperazin-1-yl(2-((5-(trifluoromethyl)benzo[d]oxazol-2-yl)amino)thiazol-4-yl)methanone hydrochloride] | ≤ 1000
